Data published in publication PMC9867442, “Indole Derivatives Bearing Imidazole, Benzothiazole-2-Thione or Benzoxazole-2-Thione Moieties—Synthesis, Structure and Evaluation of Their Cytoprotective, Antioxidant, Antibacterial and Fungicidal Activities” (Molecules, 2023).

System: not listed separately
Assay: Ferrous ions (Fe2+) chelating activity (ferrozine)
Conditions: 0.1 mg/mL, 10 min, room temperature
Experimental: Ferrous ions (Fe^2+) chelating activity was evaluated by inhibition of the formation of Fe^2+-ferrozine complex after incubation of the compounds tested with Fe^2+. The Fe^2+-chelating ability of compounds tested was determined by the absorbance of the ferrous ion-ferrozine complex at 562 nm. In brief, 0.1 mg/mL concentration of the compounds tested in 0.2 mL ethyl alcohol were added to a solution of 0.6 mM FeCl2 (0.05 mL). EDTA (ethylenediaminetetraacetic acid) was used as the standard EDTA chelating agent. The reaction was started by the addition of 5 mM ferrozine (0.05 mL) in ethyl alcohol and shaken vigorously immediately. The samples were stored for 10 min at room temperature (~22 °C). Following incubation, the absorbance (Abs) of the solutions was measured at 562 nm in a spectrophotometer. The percentage of inhibition of ferrozine—Fe^2+ complex formation was calculated using the equation: Fe^2+ chelating effect (%) = [1 − (Abs1/Abs0)] × 100% where Abs0 is the absorbance of the sample without the tested compound and Abs1 is the absorbance in the presence of the compound tested. Each sample was made in triplicate, and three independent experiments were performed.

SMILES	Chelating activity [%]
c1ccc2c(c1)ncn2Cc1c[nH]c2ccccc12 [Compound 9, 1-((1H-indol-3-yl)methyl)-1H-benzo[d]imidazole]	4
S=c1sc2ccccc2n1Cc1c[nH]c2ccccc12 [Compound 10, 3-((1H-indol-3-yl)methyl)benzo[d]thiazole-2(3H)-thione]	12

System: Coniophora puteana (Cp)
Assay: Antifungal agar-plate method
Format: cell-based
Conditions: Coniophora puteana, concentration 0.0001%, read-out: Antifungal activity (inhibition of mycelial growth)
Experimental: (§1) Fungal strains: Coriolus versicolor (Cv), Poria placenta (Pp), Coniophora puteana (Cp) and Gloeophyllum trabeum (Gt) were used as a test organism for the experimental determination of the antifungal activity of 1–11. The fungus were obtained from the collection of the Department of Wood Chemical Technology, Faculty of Forestry and Wood Technology, Poznań, University of Life Sciences, Poland. The fungal growth rates were measured in 90 mm-diameter plastic dishes using the agar-plate method, described by Ważny and Thorton. Five concentrations of gramine and its derivatives in the range of 0.1% to 0.00001% were studied. The compound was applied on the agar (2% agar and 5% malt-extract) prepared on the Petri dish and previously autoclaved. The combination of the compound and fungus was repeated three times. Given sample was centrally inoculated with a 5 mm diameter disc taken from the submargin of 5-day-old malt agar plates. The plates were incubated in darkness at 21 ± 2 °C and 70 ± 5% relative air humidity. The growth duration was determined by the total coverage of the reference plate. The radius of the area covered by the fungus compared with the reference agar plate was employed to calculate the effective doses, ED50, of preservative concentrations retarding the fungal growth rate by 50%.

SMILES	inhibition of growth at 0.0001 % [%]
c1ccc2c(c1)ncn2Cc1c[nH]c2ccccc12 [Compound 9, 1-((1H-indol-3-yl)methyl)-1H-benzo[d]imidazole]	0
S=c1sc2ccccc2n1Cc1c[nH]c2ccccc12 [Compound 10, 3-((1H-indol-3-yl)methyl)benzo[d]thiazole-2(3H)-thione]	0

Same assay, conditions: Coniophora puteana, concentration 0.001%, read-out: Antifungal activity (inhibition of mycelial growth)

SMILES	inhibition of growth at 0.001 % [%]
c1ccc2c(c1)ncn2Cc1c[nH]c2ccccc12 [Compound 9, 1-((1H-indol-3-yl)methyl)-1H-benzo[d]imidazole]	0
S=c1sc2ccccc2n1Cc1c[nH]c2ccccc12 [Compound 10, 3-((1H-indol-3-yl)methyl)benzo[d]thiazole-2(3H)-thione]	40

Same assay, conditions: Coniophora puteana, concentration 0.01%, read-out: Antifungal activity (inhibition of mycelial growth)

SMILES	inhibition of growth at 0.01 % [%]
c1ccc2c(c1)ncn2Cc1c[nH]c2ccccc12 [Compound 9, 1-((1H-indol-3-yl)methyl)-1H-benzo[d]imidazole]	40
S=c1sc2ccccc2n1Cc1c[nH]c2ccccc12 [Compound 10, 3-((1H-indol-3-yl)methyl)benzo[d]thiazole-2(3H)-thione]	57

Same assay, conditions: Coniophora puteana, concentration 0.1%, read-out: Antifungal activity (inhibition of mycelial growth)

SMILES	inhibition of growth at 0.1 % [%]
c1ccc2c(c1)ncn2Cc1c[nH]c2ccccc12 [Compound 9, 1-((1H-indol-3-yl)methyl)-1H-benzo[d]imidazole]	100
S=c1sc2ccccc2n1Cc1c[nH]c2ccccc12 [Compound 10, 3-((1H-indol-3-yl)methyl)benzo[d]thiazole-2(3H)-thione]	100

System: Gloeophyllum trabeum (Gt)
Assay: Antifungal agar-plate method
Format: cell-based
Conditions: Gloeophyllum trabeum, concentration 0.0001%, read-out: Antifungal activity (inhibition of mycelial growth)
Experimental: as §1

SMILES	inhibition of growth at 0.0001 % [%]
c1ccc2c(c1)ncn2Cc1c[nH]c2ccccc12 [Compound 9, 1-((1H-indol-3-yl)methyl)-1H-benzo[d]imidazole]	17
S=c1sc2ccccc2n1Cc1c[nH]c2ccccc12 [Compound 10, 3-((1H-indol-3-yl)methyl)benzo[d]thiazole-2(3H)-thione]	0

Same assay, conditions: Gloeophyllum trabeum, concentration 0.001%, read-out: Antifungal activity (inhibition of mycelial growth)

SMILES	inhibition of growth at 0.001 % [%]
c1ccc2c(c1)ncn2Cc1c[nH]c2ccccc12 [Compound 9, 1-((1H-indol-3-yl)methyl)-1H-benzo[d]imidazole]	28
S=c1sc2ccccc2n1Cc1c[nH]c2ccccc12 [Compound 10, 3-((1H-indol-3-yl)methyl)benzo[d]thiazole-2(3H)-thione]	38

Same assay, conditions: Gloeophyllum trabeum, concentration 0.01%, read-out: Antifungal activity (inhibition of mycelial growth)

SMILES	inhibition of growth at 0.01 % [%]
c1ccc2c(c1)ncn2Cc1c[nH]c2ccccc12 [Compound 9, 1-((1H-indol-3-yl)methyl)-1H-benzo[d]imidazole]	48
S=c1sc2ccccc2n1Cc1c[nH]c2ccccc12 [Compound 10, 3-((1H-indol-3-yl)methyl)benzo[d]thiazole-2(3H)-thione]	59

Same assay, conditions: Gloeophyllum trabeum, concentration 0.1%, read-out: Antifungal activity (inhibition of mycelial growth)

SMILES	inhibition of growth at 0.1 % [%]
c1ccc2c(c1)ncn2Cc1c[nH]c2ccccc12 [Compound 9, 1-((1H-indol-3-yl)methyl)-1H-benzo[d]imidazole]	100
S=c1sc2ccccc2n1Cc1c[nH]c2ccccc12 [Compound 10, 3-((1H-indol-3-yl)methyl)benzo[d]thiazole-2(3H)-thione]	100

System: Poria placenta (Pp)
Assay: Antifungal agar-plate method
Format: cell-based
Conditions: concentration 0.0001%, read-out: Antifungal activity (inhibition of mycelial growth)
Experimental: as §1

SMILES	inhibition of growth at 0.0001 % [%]
c1ccc2c(c1)ncn2Cc1c[nH]c2ccccc12 [Compound 9, 1-((1H-indol-3-yl)methyl)-1H-benzo[d]imidazole]	0
S=c1sc2ccccc2n1Cc1c[nH]c2ccccc12 [Compound 10, 3-((1H-indol-3-yl)methyl)benzo[d]thiazole-2(3H)-thione]	34

Same assay, conditions: concentration 0.001%, read-out: Antifungal activity (inhibition of mycelial growth)

SMILES	inhibition of growth at 0.001 % [%]
c1ccc2c(c1)ncn2Cc1c[nH]c2ccccc12 [Compound 9, 1-((1H-indol-3-yl)methyl)-1H-benzo[d]imidazole]	23
S=c1sc2ccccc2n1Cc1c[nH]c2ccccc12 [Compound 10, 3-((1H-indol-3-yl)methyl)benzo[d]thiazole-2(3H)-thione]	54

Same assay, conditions: concentration 0.01%, read-out: Antifungal activity (inhibition of mycelial growth)

SMILES	inhibition of growth at 0.01 % [%]
c1ccc2c(c1)ncn2Cc1c[nH]c2ccccc12 [Compound 9, 1-((1H-indol-3-yl)methyl)-1H-benzo[d]imidazole]	37
S=c1sc2ccccc2n1Cc1c[nH]c2ccccc12 [Compound 10, 3-((1H-indol-3-yl)methyl)benzo[d]thiazole-2(3H)-thione]	71

Same assay, conditions: concentration 0.1%, read-out: Antifungal activity (inhibition of mycelial growth)

SMILES	inhibition of growth at 0.1 % [%]
c1ccc2c(c1)ncn2Cc1c[nH]c2ccccc12 [Compound 9, 1-((1H-indol-3-yl)methyl)-1H-benzo[d]imidazole]	100
S=c1sc2ccccc2n1Cc1c[nH]c2ccccc12 [Compound 10, 3-((1H-indol-3-yl)methyl)benzo[d]thiazole-2(3H)-thione]	100

System: Coriolus versicolor (Cv)
Assay: Antifungal agar-plate method
Format: cell-based
Conditions: Trametes versicolor, concentration 0.0001%, read-out: Antifungal activity (inhibition of mycelial growth)
Experimental: as §1

SMILES	inhibition of growth at 0.0001 % [%]
c1ccc2c(c1)ncn2Cc1c[nH]c2ccccc12 [Compound 9, 1-((1H-indol-3-yl)methyl)-1H-benzo[d]imidazole]	0
S=c1sc2ccccc2n1Cc1c[nH]c2ccccc12 [Compound 10, 3-((1H-indol-3-yl)methyl)benzo[d]thiazole-2(3H)-thione]	0

Same assay, conditions: Trametes versicolor, concentration 0.001%, read-out: Antifungal activity (inhibition of mycelial growth)

SMILES	inhibition of growth at 0.001 % [%]
c1ccc2c(c1)ncn2Cc1c[nH]c2ccccc12 [Compound 9, 1-((1H-indol-3-yl)methyl)-1H-benzo[d]imidazole]	6
S=c1sc2ccccc2n1Cc1c[nH]c2ccccc12 [Compound 10, 3-((1H-indol-3-yl)methyl)benzo[d]thiazole-2(3H)-thione]	20

Same assay, conditions: Trametes versicolor, concentration 0.01%, read-out: Antifungal activity (inhibition of mycelial growth)

SMILES	inhibition of growth at 0.01 % [%]
c1ccc2c(c1)ncn2Cc1c[nH]c2ccccc12 [Compound 9, 1-((1H-indol-3-yl)methyl)-1H-benzo[d]imidazole]	44
S=c1sc2ccccc2n1Cc1c[nH]c2ccccc12 [Compound 10, 3-((1H-indol-3-yl)methyl)benzo[d]thiazole-2(3H)-thione]	49

Same assay, conditions: Trametes versicolor, concentration 0.1%, read-out: Antifungal activity (inhibition of mycelial growth)

SMILES	inhibition of growth at 0.1 % [%]
c1ccc2c(c1)ncn2Cc1c[nH]c2ccccc12 [Compound 9, 1-((1H-indol-3-yl)methyl)-1H-benzo[d]imidazole]	100
S=c1sc2ccccc2n1Cc1c[nH]c2ccccc12 [Compound 10, 3-((1H-indol-3-yl)methyl)benzo[d]thiazole-2(3H)-thione]	100

System: Escherichia coli
Assay: Antibacterial well-diffusion method
Format: cell-based
Conditions: 0.1 mL of compound in DMSO, 48 h, 37 °C
Experimental: (§2) The antimicrobial properties of compounds were determined against selected bacteria: Micrococcus luteus, Bacillus subtilis, Escherichia coli and Pseudomonas fluorescens which came from the collection of Pure Cultures of the Facility of Microbiology of the Department of Soil Science and Microbiology of the Poznan University of Life Sciences. The well-diffusion method was used to evaluate the antimicrobial properties of compounds. 6 mL each of liquidized broth medium was poured into sterile Petri dishes and allowed to solidify. After which, two sterile glass rings with a diameter of 0.5 cm were placed on the surface of each plate. Then 20 mL each of liquid broth medium containing suspensions of the tested bacterial strains at a density of 10^7 cells/cm3, obtained from 48-h cultures on broth […], was introduced. After the medium solidified, the glass rings were removed with a pencil, obtaining two wells on each plate. 0.1 mL of compound dissolved in pure dimethyl sulphoxide was introduced into one well, and 0.1 mL of pure dimethyl sulphoxide was introduced into the other well, which was as a control. Each compound was tested in four replicates. The plates were incubated for 48 h in a thermostat at 27 °C for M. luteus, B. subtilis and P. fluorescens cultures, and the E. coli culture at 37 °C. At the end of the incubation, the diameters of growth inhibition of the tested strains were measured using calipers.

SMILES	Zone of Growth Inhibition [mm]
c1ccc2c(c1)ncn2Cc1c[nH]c2ccccc12 [Compound 9, 1-((1H-indol-3-yl)methyl)-1H-benzo[d]imidazole]	3
S=c1sc2ccccc2n1Cc1c[nH]c2ccccc12 [Compound 10, 3-((1H-indol-3-yl)methyl)benzo[d]thiazole-2(3H)-thione]	1

System: Micrococcus luteus
Assay: Antibacterial well-diffusion method
Format: cell-based
Conditions: Micrococus luteus, 0.1 mL of compound in DMSO, 48 h, 27 °C
Experimental: as §2

SMILES	Zone of Growth Inhibition [mm]
c1ccc2c(c1)ncn2Cc1c[nH]c2ccccc12 [Compound 9, 1-((1H-indol-3-yl)methyl)-1H-benzo[d]imidazole]	4.3
S=c1sc2ccccc2n1Cc1c[nH]c2ccccc12 [Compound 10, 3-((1H-indol-3-yl)methyl)benzo[d]thiazole-2(3H)-thione]	2.6

System: Bacillus subtilis
Assay: Antibacterial well-diffusion method
Format: cell-based
Conditions: 0.1 mL of compound in DMSO, 48 h, 27 °C
Experimental: as §2

SMILES	Zone of Growth Inhibition [mm]
c1ccc2c(c1)ncn2Cc1c[nH]c2ccccc12 [Compound 9, 1-((1H-indol-3-yl)methyl)-1H-benzo[d]imidazole]	2.7
S=c1sc2ccccc2n1Cc1c[nH]c2ccccc12 [Compound 10, 3-((1H-indol-3-yl)methyl)benzo[d]thiazole-2(3H)-thione]	0

System: Pseudomonas fluorescens
Assay: Antibacterial well-diffusion method
Format: cell-based
Conditions: 0.1 mL of compound in DMSO, 48 h, 27 °C
Experimental: as §2

SMILES	Zone of Growth Inhibition [mm]
c1ccc2c(c1)ncn2Cc1c[nH]c2ccccc12 [Compound 9, 1-((1H-indol-3-yl)methyl)-1H-benzo[d]imidazole]	0
S=c1sc2ccccc2n1Cc1c[nH]c2ccccc12 [Compound 10, 3-((1H-indol-3-yl)methyl)benzo[d]thiazole-2(3H)-thione]	0

System: not given
Assay: not given
Conditions: not given

melting point [°C]	SMILES
214 to 216	c1ccc2c(c1)ncn2Cc1c[nH]c2ccccc12 [Compound 9, 1-((1H-indol-3-yl)methyl)-1H-benzo[d]imidazole]
187 to 190	S=c1sc2ccccc2n1Cc1c[nH]c2ccccc12 [Compound 10, 3-((1H-indol-3-yl)methyl)benzo[d]thiazole-2(3H)-thione]

System: human red blood cells (RBC)
Assay: Hemolysis assay under the compounds tested
Format: cell-based
Conditions: 0.1 mg/mL, 60 min, 37 °C, PBS pH 7.4
Experimental: The erythrocytes were washed three times (3000 rpm, 10 min, +4 °C) in 7.4 pH phosphate buffered saline (PBS: 137 mM NaCl, 2.7 mM KCl, 10 mM Na2HPO4, 1.76 mM KH2PO4) supplemented with 10 mM glucose. After washing, RBC were suspended in the PBS buffer at 1.65 × 10^9 cells/mL, stored at +4 °C, and used within 5 h.
The cytotoxic activity of the compounds tested was determined by a standard hemolytic assay according to Mrówczyńska and Hägerstrand [57]. Briefly, RBC (1.65 × 10^8 cells/mL, ~1.5% hematocrit) were incubated in PBS buffer (7.4 pH) supplemented with 10 mM glucose and containing compounds tested (0.1 mg/mL) for 60 min at 37 °C in a shaking water bath. Samples with RBC incubated in PBS without compounds tested were taken as the control. Each sample was repeated three times, and the experiments were repeated 3 times with RBC from different donors. After incubation, the RBC suspensions were centrifuged (3000 rpm, 10 min), and the degree of hemolysis was estimated by measuring the absorbance (Ab) of the supernatant at 540 nm. The results were expressed as a percentage (%) of hemolysis which was determined using the following equation:Hemolysis (%) = (sample Ab/positive control Ab) × 100% were positive control is Ab of supernatant of RBC in ice-cold H2O.

SMILES	Hemolytic activity [%]
c1ccc2c(c1)ncn2Cc1c[nH]c2ccccc12 [Compound 9, 1-((1H-indol-3-yl)methyl)-1H-benzo[d]imidazole]	23
